Reference: US20190365710A1, “METHODS OF TREATING CANCER” (GlaxoSmithKline Intellectual Property Development Limited, priority 2016, published 2019)
Where two headings read alike, the source gives them in different places.

Assays:
[1] = system: human renal cell carcinoma xenografts (ACHN); experiment: ACHN xenograft tumor growth; assay type: in vivo, SCID mice; settings: for Body weight Difference (vs. vehicle): ACHN (ccRCC)
[2] = system: Breast cancer cell lines; experiment: 6-day growth-death assay (Cell Titer Glo); settings: for IC50: Homo sapiens
Experimental: Cell lines representing triple negative breast cancer (TNBC) are shown in orange; other subtypes are in blue.
(§1) The growth of all cell lines was evaluated over time across a wide range of seeding densities to identify conditions that permitted proliferation throughout the entire 6-day assay. Cells were plated at the optimal seeding density and after overnight incubation, a 20-point 2-fold titration of compound was added and plates were incubated for 6 days. A replicate plate of cells was harvested at the time of compound addition to quantify the starting number of cells (To). Values obtained after the 6 day treatment were expressed as a function of the To value and plotted against compound concentration. The To value was normalized to 100% and represents the number of cells at the time of compound addition. The data were fit with a 4 parameter equation to generate a concentration response curve and the growth IC50 (gIC50) was determined. The gIC50 is the midpoint of the ‘growth window’, the difference between the number of cells at the time of compound addition (T0) and the number of cells after 6 days (DMSO control). The growth-death assay can be used to quantify the net population change, clearly defining cell death (cytotoxicity) as fewer cells compared to the number at the time of compound addition (T0).

[3] = system: arginine methylation in Toledo DLBCL cells; experiment: Western analysis of arginine methylation marks (ADMA, SDMA, MMA); assay type: cell-based, human
From the text: (B) Representative western blots of arginine methylation marks. Regions quantified are denoted by black bars on the right of the gel.
(B) Representative western blots of arginine methylation marks. Regions quantified for (A) are denoted by black bars on the side of the gel.
As predicted, ADMA methylation decreased while MMA increased upon compound exposure (FIG. 12). […] Given the detection of numerous substrates with varying kinetics, and variability of ADMA levels among DMSO-treated samples, both the full lane and a prominent 45 kDa band were characterized to assess ADMA. Increases in MMA were apparent by 24 hours and near maximal by 48 hours while decreases in the 45 kDa ADMA band required 72-96 hours to achieve maximal effect. Increases in SDMA were apparent after 48 hours of compound exposure and continued to increase through 120 hours, consistent with the potential switch from conversion of MMA to ADMA by Type I PRMTs to SDMA by Type II PRMTs (FIG. 12).
Cells were then washed, cultured in Compound A-free media, samples were collected daily through 120 hours, and arginine methylation levels were examined by western analysis. […] SDMA appeared to continue to increase even after 6 hours of washout. This is consistent with the continued increase observed through 120 hours without any obvious plateau (FIG. 12) coupled with the durable increase in MMA that has not yet returned to baseline after washout. Durability of each modification generally reflected the kinetics of arginine methylation changes brought about by Compound A, with MMA being the most rapid.

[4] = system: Prostate cancer cell lines; experiment: 6-day growth-death assay (Cell Titer Glo); assay type: cell-based, human; settings: 4 cell lines
[5] = system: Kidney cancer cell lines; experiment: 6-day growth-death assay (Cell Titer Glo); assay type: cell-based, human; settings: 10 cell lines
[6] = system: Toledo
Experimental: (§2) FIG. 18: Propidium iodide FACS analysis of cell cycle in human lymphoma cell lines. […] Data represents the average±SEM of biological replicates, n=2.
(§3) By day 7, an increase in the sub-G1 population was apparent at concentrations ≥100 nM.

[7] = system: OCI-Ly1; settings: only at this concentration
Experimental: as §2, §3

[8] = system: U2932; settings: only at this concentration
Experimental: as §2, §3

[9] = system: 196 human cancer cell lines; experiment: 6-day growth-death assay (Cell Titer Glo); assay type: cell-based
[10] = system: Colon cancer cell lines; experiment: 6-day growth-death assay (Cell Titer Glo); assay type: cell-based, human
[11] = system: SK-MEL-5; experiment: 6-day growth-death assay (Cell Titer Glo); assay type: cell-based; settings: Homo sapiens, SK-MEL-5, 144 h, read-out: gIC50
Experimental: as §1

[12] = system: A375; experiment: 6-day growth-death assay (Cell Titer Glo); assay type: cell-based; settings: Homo sapiens, A-375, 144 h, read-out: gIC50
Experimental: as §1

[13] = system: HL-60; experiment: 6-day growth-death assay (Cell Titer Glo); assay type: cell-based; settings: Homo sapiens, HL-60, 144 h, read-out: gIC50
Experimental: as §1

[14] = system: ACHN; experiment: 6-day growth-death assay (Cell Titer Glo); assay type: cell-based; settings: Homo sapiens, 144 h, read-out: gIC50
Experimental: as §1

[15] = target: PRMT6 (Homo sapiens, UniProt Q96LA8); experiment: biochemical
[16] = system: Toledo (human DLBCL) xenograft; experiment: Toledo xenograft tumor growth; settings: for Body weight Difference (vs. vehicle): Toledo (DLBCL)
[17] = system: Melanoma cell lines; experiment: 6-day growth-death assay (Cell Titer Glo); settings: for IC50: Homo sapiens, read-out: Median gIC50, Melanoma
Experimental: as §1

[18] = system: Bladder cancer cell lines; experiment: 6-day growth-death assay (Cell Titer Glo); assay type: cell-based, human; settings: for IC50: Homo sapiens, read-out: Median gIC50, Bladder
[19] = system: NSC-LC cell lines; experiment: 6-day growth-death assay (Cell Titer Glo); assay type: cell-based, human; settings: for IC50: Homo sapiens, read-out: Median gIC50, Lung (NSCLC); for Median % Ymin − T0: Lung (NSCLC)
[20] = system: MDA-MB-435S; experiment: 6-day growth-death assay (Cell Titer Glo); assay type: cell-based, human
Experimental: as §1

[21] = target: PRMT5/MEP50 (Homo sapiens, UniProt O14744); experiment: PRMT family radioactive assay; assay type: biochemical; settings: Type II; 60 minute SAM:Enzyme:Compound A preincubation
[22] = system: ccRCC cell lines; settings: only at the highest concentration
[23] = system: AML cell lines; experiment: 6-day growth-death assay (Cell Titer Glo); assay type: cell-based, human
[24] = target: PRMT8 (Homo sapiens, UniProt Q9NR22); experiment: biochemical
[25] = system: Lymphoma cell lines; experiment: 6-day growth-death assay (Cell Titer Glo); assay type: cell-based, human; settings: for IC50: Homo sapiens, read-out: Median gIC50, Lymphoma
[26] = target: PRMT9 (Homo sapiens, UniProt Q6P2P2); experiment: PRMT family radioactive assay; assay type: biochemical; settings: Type II; 60 minute SAM:Enzyme:Compound A preincubation
[27] = 0.4 μM Compound A for 72 hours then washout
[28] = Homo sapiens, 144 h, read-out: Median gIC50

PRMT6, sequence (Q96LA8 whole entry): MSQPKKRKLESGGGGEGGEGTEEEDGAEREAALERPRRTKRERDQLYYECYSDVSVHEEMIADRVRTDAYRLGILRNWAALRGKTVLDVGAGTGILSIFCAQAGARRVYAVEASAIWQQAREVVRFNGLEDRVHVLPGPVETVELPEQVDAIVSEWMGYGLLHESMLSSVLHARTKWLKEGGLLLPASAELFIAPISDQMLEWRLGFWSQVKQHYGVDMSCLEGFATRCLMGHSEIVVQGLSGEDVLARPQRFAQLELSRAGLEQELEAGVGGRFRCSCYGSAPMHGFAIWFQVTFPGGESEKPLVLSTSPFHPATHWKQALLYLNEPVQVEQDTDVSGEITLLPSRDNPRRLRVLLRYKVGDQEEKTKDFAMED
PRMT8, sequence (Q9NR22 whole entry): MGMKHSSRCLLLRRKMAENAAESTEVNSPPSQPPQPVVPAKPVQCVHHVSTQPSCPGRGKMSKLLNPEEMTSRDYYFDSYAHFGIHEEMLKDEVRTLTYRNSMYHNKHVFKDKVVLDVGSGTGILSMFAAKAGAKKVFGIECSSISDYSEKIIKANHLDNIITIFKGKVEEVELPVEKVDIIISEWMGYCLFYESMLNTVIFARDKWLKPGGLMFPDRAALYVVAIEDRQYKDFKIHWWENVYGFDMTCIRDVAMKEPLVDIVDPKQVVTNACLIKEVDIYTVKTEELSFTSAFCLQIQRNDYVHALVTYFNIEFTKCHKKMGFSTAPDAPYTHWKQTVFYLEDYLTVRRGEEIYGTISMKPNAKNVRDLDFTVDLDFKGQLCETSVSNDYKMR
PRMT5/MEP50, sequence (O14744 whole entry): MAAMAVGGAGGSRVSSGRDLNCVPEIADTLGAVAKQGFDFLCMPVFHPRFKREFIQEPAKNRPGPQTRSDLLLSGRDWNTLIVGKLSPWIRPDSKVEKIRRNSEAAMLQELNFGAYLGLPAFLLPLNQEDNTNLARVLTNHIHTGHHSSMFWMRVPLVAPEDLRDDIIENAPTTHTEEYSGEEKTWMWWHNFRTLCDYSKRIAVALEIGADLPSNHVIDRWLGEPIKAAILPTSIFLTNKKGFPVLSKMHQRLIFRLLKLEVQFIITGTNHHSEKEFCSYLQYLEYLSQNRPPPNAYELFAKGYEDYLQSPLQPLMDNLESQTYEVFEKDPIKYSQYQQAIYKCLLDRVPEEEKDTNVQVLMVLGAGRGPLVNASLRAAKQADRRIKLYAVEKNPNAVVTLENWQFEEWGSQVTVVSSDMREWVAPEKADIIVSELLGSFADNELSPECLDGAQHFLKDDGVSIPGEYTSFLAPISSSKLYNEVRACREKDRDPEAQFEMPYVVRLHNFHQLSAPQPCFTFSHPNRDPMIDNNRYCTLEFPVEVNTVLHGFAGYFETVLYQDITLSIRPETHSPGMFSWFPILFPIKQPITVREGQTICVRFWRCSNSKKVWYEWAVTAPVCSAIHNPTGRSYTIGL
PRMT5/MEP50, sequence (Q9BQA1 whole entry partner): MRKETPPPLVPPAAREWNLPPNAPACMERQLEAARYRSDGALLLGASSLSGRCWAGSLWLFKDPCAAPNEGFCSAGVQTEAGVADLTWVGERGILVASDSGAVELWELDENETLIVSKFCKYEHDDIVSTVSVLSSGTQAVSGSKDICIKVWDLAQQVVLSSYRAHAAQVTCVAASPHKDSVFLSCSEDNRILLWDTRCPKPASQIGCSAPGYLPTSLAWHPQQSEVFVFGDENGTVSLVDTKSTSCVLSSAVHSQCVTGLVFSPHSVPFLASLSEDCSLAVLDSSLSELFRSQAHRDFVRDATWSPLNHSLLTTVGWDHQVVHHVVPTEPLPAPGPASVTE
PRMT9, sequence (Q6P2P2 whole entry): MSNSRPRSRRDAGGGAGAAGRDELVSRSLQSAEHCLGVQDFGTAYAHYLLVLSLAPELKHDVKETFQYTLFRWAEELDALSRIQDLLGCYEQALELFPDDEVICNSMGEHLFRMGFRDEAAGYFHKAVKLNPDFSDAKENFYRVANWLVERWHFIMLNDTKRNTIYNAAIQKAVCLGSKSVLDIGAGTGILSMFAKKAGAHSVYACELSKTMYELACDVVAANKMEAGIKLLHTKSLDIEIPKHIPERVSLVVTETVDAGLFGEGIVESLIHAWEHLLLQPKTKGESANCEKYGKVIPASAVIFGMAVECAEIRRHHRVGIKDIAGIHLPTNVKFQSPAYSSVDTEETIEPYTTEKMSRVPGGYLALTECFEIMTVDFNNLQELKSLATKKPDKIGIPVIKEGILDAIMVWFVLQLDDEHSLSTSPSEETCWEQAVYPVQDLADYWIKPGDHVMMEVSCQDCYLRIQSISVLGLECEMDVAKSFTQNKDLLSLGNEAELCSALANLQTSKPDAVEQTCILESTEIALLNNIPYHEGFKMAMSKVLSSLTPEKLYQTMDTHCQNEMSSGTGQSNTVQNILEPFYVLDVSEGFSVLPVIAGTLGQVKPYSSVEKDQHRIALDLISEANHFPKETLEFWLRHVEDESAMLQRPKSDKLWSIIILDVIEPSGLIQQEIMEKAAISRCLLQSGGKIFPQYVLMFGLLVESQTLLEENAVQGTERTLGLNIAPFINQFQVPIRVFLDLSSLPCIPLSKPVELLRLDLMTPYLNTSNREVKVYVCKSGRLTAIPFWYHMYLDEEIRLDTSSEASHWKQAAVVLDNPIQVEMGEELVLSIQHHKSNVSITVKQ

CCOCC1(COCC)CCC(c2n[nH]cc2CN(C)CCNC)CC1 [Compound A]
Body weight Difference (vs. vehicle) ([1]; 150 mg/kg QD oral, Day 59): −3% | Body weight Difference (vs. vehicle) ([1]; 300 mg/kg QD oral, Day 59): −4% | Body weight Difference (vs. vehicle) ([1]; 450 mg/kg QD oral, Day 59): −7% | Body weight Difference (vs. vehicle) ([1]; 600 mg/kg QD oral, arm terminated at day 31): −17% | body weight loss ([1]; ACHN, 600 mg/kg daily, dosing group terminated on day 31): Significant body weight loss | % Cytotoxic (cell lines with negative Ymin−T0) ([2]; 6-day, Breast, 29 cell lines): 10% | % gIC100 < 2 μM (of cell lines) ([2]; 6-day, Breast, 29 cell lines): 0% | Median gIC100 ([2]; 6-day, Breast, 29 cell lines): 29.36 µM | Median % Ymin − T0 ([2]; Breast, MTAP High): 174% | Median gIC100 ([2]; Breast, MTAP High): 29.4 µM | Median % Ymin − T0 ([2]; Breast, MTAP Low): 188% | IC50 ([2]; 144 h, read-out: median gIC50, 6-day, TNBC cell lines): 3600 nM | IC50 ([2]; 144 h, read-out: median gIC50, 6-day, non-TNBC cell lines): 6800 nM | IC50 ([2]; read-out: Median gIC50, Breast, MTAP High): 4900 nM | IC50 ([2]; read-out: Median gIC50, Breast, MTAP Low): 10200 nM | time after which increases in SDMA were apparent ([3]; 0.4 μM Compound A): 48 h | time at which increases in MMA were apparent ([3]; 0.4 μM Compound A): ≤ 24 h | time at which increases in MMA were near maximal ([3]; 0.4 μM Compound A): ≤ 48 h | time required for maximal decrease in the 45 kDa ADMA band ([3]; 0.4 μM Compound A): 72 to 96 h | time for ADMA to return to baseline after washout [3, 27]: ≤ 24 h | time for MMA to return to baseline after washout [3, 27]: ≤ 24 h | time for SDMA to return to baseline after washout [3, 27]: ≤ 96 h | % Cytotoxic (cell lines with negative Ymin−T0) [4]: 0% | % gIC100 < 2 μM (of cell lines) [4]: 0% | % Cytotoxic (cell lines with negative Ymin−T0) [5]: 0% | % gIC100 < 2 μM (of cell lines) [5]: 0% | Median gIC100 [5]: 29.35 µM | Compound A concentrations giving accumulation of cells in sub-G1 ([6]; beginning after 3 days of treatment): ≥ 1000 nM | Compound A concentrations giving increase in the sub-G1 population ([6]; by day 7): ≥ 100 nM | Compound A concentration at which sub-G1 effect was evident [7]: 10 µM | Compound A concentration at which sub-G1 effect was evident [8]: 10 µM | % Cytotoxic (cell lines with negative Ymin−T0) ([9]; 6-day, Total, 196 cell lines): 23% | % gIC100 < 2 μM (of cell lines) ([9]; 6-day, Total, 196 cell lines): 4% | IC50 [9, 28]: 2120 nM | % Cytotoxic (cell lines with negative Ymin−T0) ([10]; 6-day, Colon, 34 cell lines): 3% | % gIC100 < 2 μM (of cell lines) ([10]; 6-day, Colon, 34 cell lines): 0% | Median gIC100 ([10]; 6-day, Colon, 34 cell lines): 29.33 µM | IC50 [10, 28]: 5510 nM | IC50 [11]: 90 ± 30 nM | IC50 [12]: 50 ± 30 nM | IC50 [13]: 20 ± 10 nM | IC50 [14]: 100 ± 50 nM | IC50 [15]: 3 to 5 nM | Body weight Difference (vs. vehicle) ([16]; second study, 37.5 mg/kg QD oral, Day 25): −5% | Body weight Difference (vs. vehicle) ([16]; second study, 75 mg/kg BID oral, Day 25): −4% | Body weight Difference (vs. vehicle) ([16]; second study, 75 mg/kg QD oral, Day 25): −5% | Body weight Difference (vs. vehicle) ([16]; second study, 150 mg/kg QD oral, Day 25): −7% | Body weight Difference (vs. vehicle) ([16]; 150 mg/kg QD oral, Day 28): −4% | Body weight Difference (vs. vehicle) ([16]; 300 mg/kg QD oral, Day 28): −3% | Body weight Difference (vs. vehicle) ([16]; 450 mg/kg QD oral, Day 28): −8% | Body weight Difference (vs. vehicle) ([16]; 600 mg/kg QD oral, Day 28): −7% | body weight loss ([16]; Toledo, any dose group): No significant body weight loss | % Cytotoxic (cell lines with negative Ymin−T0) ([17]; 6-day, Melanoma, 7 cell lines): 0% | % gIC100 < 2 μM (of cell lines) ([17]; 6-day, Melanoma, 7 cell lines): 0% | Median gIC100 ([17]; 6-day, Melanoma, 7 cell lines): 29.33 µM | IC50 ([17]; MTAP High): 1900 nM | IC50 ([17]; MTAP Low): 300 nM | Median % Ymin − T0 ([17]; Melanoma, MTAP High): 214% | Median gIC100 ([17]; Melanoma, MTAP High): 29.4 µM | Median % Ymin − T0 ([17]; Melanoma, MTAP Low): 53% | % Cytotoxic (cell lines with negative Ymin−T0) ([18]; 6-day, Bladder, 18 cell lines): 0% | % gIC100 < 2 μM (of cell lines) ([18]; 6-day, Bladder, 18 cell lines): 0% | Median % Ymin − T0 ([18]; Bladder, MTAP High): 658% | Median gIC100 ([18]; Bladder, MTAP High): 29.3 µM | Median % Ymin − T0 ([18]; Bladder, MTAP Low): 257% | Median gIC100 ([18]; Bladder, MTAP Low): 29.3 µM | IC50 ([18]; MTAP High): 7600 nM | IC50 ([18]; MTAP Low): 1600 nM | % Cytotoxic (cell lines with negative Ymin−T0) ([19]; 6-day, NSC-LC, 25 cell lines): 16% | % gIC100 < 2 μM (of cell lines) ([19]; 6-day, NSC-LC, 25 cell lines): 0% | Median gIC100 ([19]; 6-day, NSC-LC, 25 cell lines): 29.33 µM | IC50 ([19]; MTAP High): 5000 nM | IC50 ([19]; MTAP Low): 3000 nM | Median % Ymin − T0 ([19]; MTAP High): 141% | Median % Ymin − T0 ([19]; MTAP Low): 237% | gIC100 [20]: 29.33 ± 0.00 µM | inhibition of activity [21]: failed to inhibit | concentration at which caspase cleavage occurred [22]: 30 µM | % Cytotoxic (cell lines with negative Ymin−T0) ([23]; 6-day, AML, 10 cell lines): 50% | % gIC100 < 2 μM (of cell lines) ([23]; 6-day, AML, 10 cell lines): 0% | Median gIC100 ([23]; 6-day, AML, 10 cell lines): 16.72 µM | number of cell lines in which cytotoxicity was induced ([23]; 6-day, of 10 AML cell lines): 5 | IC50 [23, 28]: 540 nM | IC50 [24]: 3 to 5 nM | % Cytotoxic (cell lines with negative Ymin−T0) ([25]; 6-day, Lymphoma, 59 cell lines): 54% | % gIC100 < 2 μM (of cell lines) ([25]; 6-day, Lymphoma, 59 cell lines): 14% | IC50 ([25]; MTAP High): 600 nM | IC50 ([25]; MTAP Low): 100 nM | Median % Ymin − T0 ([25]; Lymphoma, MTAP High): 17% | Median gIC100 ([25]; Lymphoma, MTAP High): 24.4 µM | Median % Ymin − T0 ([25]; Lymphoma, MTAP Low): −89% | Median gIC100 ([25]; Lymphoma, MTAP Low): 5.3 µM | inhibition of activity [26]: failed to inhibit
